Experiment [1] addresses T1, full-length beta-Catenin (Uniprot ID P35222) (Homo sapiens, UniProt P35222).
T1 construct: 10 nM full-length beta-Catenin (Uniprot ID P35222)
T1 sequence (P35222 1-781): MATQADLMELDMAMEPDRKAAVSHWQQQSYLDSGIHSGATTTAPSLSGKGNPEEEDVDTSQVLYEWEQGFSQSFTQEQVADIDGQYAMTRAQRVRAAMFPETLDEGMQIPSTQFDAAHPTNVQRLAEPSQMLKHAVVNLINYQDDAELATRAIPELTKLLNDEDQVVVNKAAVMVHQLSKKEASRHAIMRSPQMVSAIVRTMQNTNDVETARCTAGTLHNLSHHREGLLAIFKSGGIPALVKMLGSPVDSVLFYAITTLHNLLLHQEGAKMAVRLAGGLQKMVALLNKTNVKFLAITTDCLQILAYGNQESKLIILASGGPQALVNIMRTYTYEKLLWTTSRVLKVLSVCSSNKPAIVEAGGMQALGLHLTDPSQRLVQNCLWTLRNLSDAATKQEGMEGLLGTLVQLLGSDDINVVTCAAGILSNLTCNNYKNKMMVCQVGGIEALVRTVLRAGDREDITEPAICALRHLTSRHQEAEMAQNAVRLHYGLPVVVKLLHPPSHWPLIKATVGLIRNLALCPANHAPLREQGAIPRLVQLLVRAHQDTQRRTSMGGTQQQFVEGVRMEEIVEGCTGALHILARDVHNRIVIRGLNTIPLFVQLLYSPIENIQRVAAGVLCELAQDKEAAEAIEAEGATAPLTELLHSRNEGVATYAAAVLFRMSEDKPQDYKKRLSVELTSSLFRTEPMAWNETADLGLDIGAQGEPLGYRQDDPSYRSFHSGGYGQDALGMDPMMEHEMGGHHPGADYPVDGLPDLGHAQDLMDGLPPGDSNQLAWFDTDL
In words: Fluorescence polarization IC50 (beta-catenin / 5FAM-TCF4 10-53 competition). Type of experiment: binding.

The target in experiment [2] is T2, beta-catenin/TCF4 engagement (Homo sapiens, UniProt P35222).
T2 construct: expressed in transfected cells; host or cells: HEK293
T2 sequence (P35222 1-781): T1 sequence (P35222 1-781)
In words: Nano-BRET target engagement assay (B-cat-Halo & TCF4-Luc in HEK293 cells). Type of experiment: cell-based.

Setting [3] is: fluorescence polarization, read-out: beta-Catenin FP IC50.
Where [4] appears, read: absolute IC50, read-out: NanoBRET Abs IC50.
Where [5] appears, read: beta-Catenin FP IC50, fluorescence polarization.
The mark [6] stands for this setting: NanoBRET Abs IC50, absolute IC50.
The mark [7] stands for this setting: fluorescence polarization, beta-catenin, read-out: FP EC50.

SMILES strings stand for the structures. Like-named read-outs stand apart in the source and are kept apart here. Where only a bound is given, the exact number is not on record here.

With `CCCC[C@@H]1NC(=O)[C@H](CC(=O)O)NC(=O)[C@]2(CC=CCCCC3(CCCC=CCCCOC(=O)N4CC[C@@](C(=O)N[C@@H](Cc5ccsc5)C(=O)N[C@@H](Cc5csc6ccccc56)C(=O)N[C@@H](CCC(N)=O)C(N)=O)(C4)NC(=O)[C@H](CCCC)NC(=O)[C@H](Cc4ccccc4)NC(=O)[C@H](C)NC(=O)[C@H](C)NC(=O)[C@H](CC(=O)O)NC(=O)[C@H](CC(=O)O)NC3=O)NC1=O)CCCN2C(C)=O` (stereo partly drawn) [I-1401, Ac-PL3-Asp-nLeu-B5-Asp-Asp-Ala-Ala-Phe-nLeu-PyrS2-3Thi-BztA-Gln-NH2], the IC50 in experiment [1] (setting [3]) was 0.005 µM; in experiment [2] (setting [4]) it was 21.4 µM.

Take `CCCC[C@@H]1NC(=O)[C@H](CC(=O)O)NC(=O)[C@]2(CC=CCCCC3(CCCC=CCCCOC(=O)N4CC[C@@](C(=O)N[C@@H](Cc5ccccc5)C(=O)N[C@@H](Cc5csc6ccccc56)C(=O)N[C@@H](CCC(N)=O)C(N)=O)(C4)NC(=O)[C@H](CC(C)C)NC(=O)[C@H](Cc4ccccc4)NC(=O)[C@H](C)NC(=O)[C@H](C)NC(=O)[C@H](CC(=O)O)NC(=O)[C@H](CC(=O)O)NC3=O)NC1=O)CCCN2C(C)=O` (stereo partly drawn) [I-1403, Ac-PL3-Asp-nLeu-B5-Asp-Asp-Ala-Ala-Phe-Leu-PyrS2-Phe-BztA-Gln-NH2]: the IC50 in experiment [1] (setting [3]) was 0.006 µM; in experiment [2] (setting [4]), 29.1 µM.

For `CCCC[C@@H]1NC(=O)[C@H](Cc2ccccc2)NC(=O)[C@H](C)NC(=O)[C@H](C)NC(=O)[C@H](CC(=O)O)NC(=O)[C@H](CC(=O)O)NC(=O)C2(CCCC=CCCCOC(=O)N3CC[C@@](C(=O)N[C@@H](Cc4ccccc4)C(=O)N[C@@H](Cc4csc5ccccc45)C(=O)N[C@@H](CCC(N)=O)C(N)=O)(C3)NC1=O)CCCC=CC[C@]1(CCCN1C(C)=O)C(=O)N[C@@H](CC(=O)O)C(=O)N[C@@H](CC(C)C)C(=O)N2` (stereo partly drawn) [I-1404, Ac-PL3-Asp-Leu-B5-Asp-Asp-Ala-Ala-Phe-nLeu-PyrS2-Phe-BztA-Gln-NH2], the figures for the IC50 in experiment [1] (setting [3]) and in experiment [2] (setting [4]) were 0.113 µM and 36.8 µM, respectively.

With `CCCC[C@@H]1NC(=O)[C@H](CC(=O)O)NC(=O)[C@]2(CC=CCCCC3(CCCC=CCCCOC(=O)N4CC[C@@](C(=O)N[C@@H](Cc5ccccc5)C(=O)N[C@@H](Cc5csc6ccccc56)C(=O)N[C@@H](CCC(N)=O)C(N)=O)(C4)NC(=O)[C@H](CCCC)NC(=O)[C@H](Cc4ccccc4)NC(=O)[C@H](C)NC(=O)[C@H](C)NC(=O)[C@H](CC(=O)O)NC(=O)[C@H](CC(=O)O)NC3=O)NC1=O)CCCN2C(C)=O` (stereo partly drawn) [I-1405, Ac-PL3-Asp-nLeu-B5-Asp-Asp-Ala-Ala-Phe-nLeu-PyrS2-Phe-BztA-Gln-NH2], the IC50 stood at 0.009 µM in experiment [1] (setting [3]) and 40.1 µM in experiment [2] (setting [4]).

As to `CC(=O)N1CCC[C@]12CC=CCCCC1(CCCC=CCCCOC(=O)N3CC[C@@](C(=O)N[C@@H](Cc4ccsc4)C(=O)N[C@@H](Cc4csc5ccccc45)C(=O)N[C@@H](CCC(N)=O)C(N)=O)(C3)NC(=O)[C@H](CC(C)C)NC(=O)[C@H](Cc3ccccc3)NC(=O)[C@H](C)NC(=O)[C@H](C)NC(=O)[C@H](Cc3cccc(C(=O)O)c3)NC(=O)[C@H](CC(=O)O)NC1=O)NC(=O)[C@H](CC(C)C)NC(=O)[C@H](CC(=O)O)NC2=O` (stereo partly drawn) [I-1406, Ac-PL3-Asp-Leu-B5-Asp-3COOHF-Ala-Ala-Phe-Leu-PyrS2-3Thi-BztA-Gln-NH2], the results for the IC50 in experiment [1] (setting [3]) and in experiment [2] (setting [4]) were 0.006 µM and 5 µM, respectively.

With `CCCC[C@@H]1NC(=O)[C@H](Cc2ccccc2)NC(=O)[C@H](C)NC(=O)[C@H](C)NC(=O)[C@H](Cc2cccc(C(=O)O)c2)NC(=O)[C@H](CC(=O)O)NC(=O)C2(CCCC=CCCCOC(=O)N3CC[C@@](C(=O)N[C@@H](Cc4ccsc4)C(=O)N[C@@H](Cc4csc5ccccc45)C(=O)N[C@@H](CCC(N)=O)C(N)=O)(C3)NC1=O)CCCC=CC[C@]1(CCCN1C(C)=O)C(=O)N[C@@H](CC(=O)O)C(=O)N[C@@H](CC(C)C)C(=O)N2` (stereo partly drawn) [I-1407, Ac-PL3-Asp-Leu-B5-Asp-3COOHF-Ala-Ala-Phe-nLeu-PyrS2-3Thi-BztA-Gln-NH2], the IC50 was 0.005 µM in experiment [1] (setting [3]) and 4.2 µM in experiment [2] (setting [4]).

Turning to `CCCC[C@@H]1NC(=O)[C@H](CC(=O)O)NC(=O)[C@]2(CC=CCCCC3(CCCC=CCCCOC(=O)N4CC[C@@](C(=O)N[C@@H](Cc5ccsc5)C(=O)N[C@@H](Cc5csc6ccccc56)C(=O)N[C@@H](CCC(N)=O)C(N)=O)(C4)NC(=O)[C@H](CCCC)NC(=O)[C@H](Cc4ccccc4)NC(=O)[C@H](C)NC(=O)[C@H](C)NC(=O)[C@H](Cc4cccc(C(=O)O)c4)NC(=O)[C@H](CC(=O)O)NC3=O)NC1=O)CCCN2C(C)=O` (stereo partly drawn) [I-1408, Ac-PL3-Asp-nLeu-B5-Asp-3COOHF-Ala-Ala-Phe-nLeu-PyrS2-3Thi-BztA-Gln-NH2], the values for the IC50 in experiment [1] (setting [3]) and in experiment [2] (setting [4]) were 0.033 µM and 6 µM, respectively.

With `CC(=O)N1CCC[C@]12CC=CCCCC1(CCCC=CCCCOC(=O)N3CC[C@@](C(=O)N[C@@H](Cc4ccsc4)C(=O)N[C@@H](Cc4csc5ccccc45)C(=O)N[C@@H](CC(C)C)C(N)=O)(C3)NC(=O)[C@H](CC(C)C)NC(=O)[C@H](Cc3ccccc3)NC(=O)[C@H](C)NC(=O)[C@H](C)NC(=O)[C@H](CC(=O)O)NC(=O)[C@H](CC(=O)O)NC1=O)NC(=O)[C@H](CC(C)(C)C)NC(=O)[C@H](CC(=O)O)NC2=O` (stereo partly drawn) [I-1409, Ac-PL3-Asp-Npg-B5-Asp-Asp-Ala-Ala-Phe-Leu-PyrS2-3Thi-BztA-Leu-NH2], the figures for the IC50 in experiment [1] (setting [3]) and in experiment [2] (setting [4]) were 0.074 µM and 24 µM, respectively.

On to `CC(=O)N1CCC[C@]12CC=CCCCC1(CCCC=CCCCOC(=O)N3CC[C@@](C(=O)N[C@@H](Cc4ccsc4)C(=O)N[C@@H](Cc4csc5ccccc45)C(=O)N[C@@H](CC(C)C)C(N)=O)(C3)NC(=O)[C@H](CC(C)C)NC(=O)[C@H](Cc3ccccc3)NC(=O)[C@H](C)NC(=O)[C@H](C)NC(=O)[C@H](CC(=O)O)NC(=O)[C@H](CC(=O)O)NC1=O)NC(=O)[C@H](CC(C)C)NC(=O)[C@H](CC(=O)O)NC2=O` (stereo partly drawn) [I-1410, Ac-PL3-Asp-Leu-B5-Asp-Asp-Ala-Ala-Phe-Leu-PyrS2-3Thi-BztA-Leu-NH2], for which the IC50 in experiment [1] (setting [5]) is 0.08 µM; in experiment [2] (setting [6]), 29.3 µM.

Regarding `CCCC[C@@H]1NC(=O)[C@H](CC(=O)O)NC(=O)[C@]2(CC=CCCCC3(CCCC=CCCCOC(=O)N4CC[C@@](C(=O)N[C@@H](Cc5ccsc5)C(=O)N[C@@H](Cc5csc6ccccc56)C(=O)N[C@@H](CC(C)C)C(N)=O)(C4)NC(=O)[C@H](CC(C)C)NC(=O)[C@H](Cc4ccccc4)NC(=O)[C@H](C)NC(=O)[C@H](C)NC(=O)[C@H](CC(=O)O)NC(=O)[C@H](CC(=O)O)NC3=O)NC1=O)CCCN2C(C)=O` (stereo partly drawn) [I-1411, Ac-PL3-Asp-nLeu-B5-Asp-Asp-Ala-Ala-Phe-Leu-PyrS2-3Thi-BztA-Leu-NH2], the IC50 in experiment [1] (setting [7]) came out at 0.109 µM; in experiment [1] (setting [3]), 0.109 µM; in experiment [2] (setting [4]), 47.1 µM.

For `CCCC[C@@H]1NC(=O)[C@H](CC(=O)O)NC(=O)[C@]2(CC=CCCCC3(CCCC=CCCCOC(=O)N4CC[C@@](C(=O)N[C@@H](Cc5ccsc5)C(=O)N[C@@H](Cc5csc6ccccc56)C(=O)N[C@@H](CC(C)C)C(N)=O)(C4)NC(=O)[C@H](CC(C)C)NC(=O)[C@H](Cc4ccccc4)NC(=O)[C@H](C)NC(=O)[C@H](C)NC(=O)[C@H](CC(=O)O)NC(=O)[C@H](CC(=O)O)NC3=O)NC1=O)CCCN2C(C)=O` (stereo partly drawn) [I-1412, Ac-PL3-Asp-nLeu-B5-Asp-Asp-Ala-Ala-Phe-Leu-PyrS2-3Thi-BztA-Leu-NH2], the IC50 in experiment [1] (setting [7]) is 0.079 µM; in experiment [1] (setting [3]), 0.079 µM; in experiment [2] (setting [4]), more than 20 µM.

Regarding `CC(=O)N1CCC[C@]12CC=CCCCC1(CCCC=CCCCOC(=O)N3CC[C@@](C(=O)N[C@@H](Cc4ccsc4)C(=O)N[C@@H](Cc4csc5ccccc45)C(=O)N[C@@H](CC(C)C)C(N)=O)(C3)NC(=O)[C@H](CC(C)C)NC(=O)[C@H](Cc3ccccc3)NC(=O)[C@H](C)NC(=O)[C@H](C)NC(=O)[C@H](CC(=O)O)NC(=O)[C@H](CC(=O)O)NC1=O)NC(=O)[C@H](CO)NC(=O)[C@H](CC(=O)O)NC2=O` (stereo partly drawn) [I-1414, Ac-PL3-Asp-Ser-B5-Asp-Asp-Ala-Ala-Phe-Leu-PyrS2-3Thi-BztA-Leu-NH2], the IC50 in experiment [1] (setting [5]) is 0.084 µM; in experiment [2] (setting [6]) it was more than 20 µM.

With `CC(=O)N1CCC[C@]12CC=CCCCC1(CCCC=CCCCOC(=O)N3CC[C@@](C(=O)N[C@@H](Cc4ccccc4Cl)C(=O)N[C@@H](Cc4csc5ccccc45)C(=O)N[C@@H](CC(C)C)C(N)=O)(C3)NC(=O)[C@H](CC(C)C)NC(=O)[C@H](Cc3ccccc3)NC(=O)[C@H](C)NC(=O)[C@H](C)NC(=O)[C@H](CC(=O)O)NC(=O)[C@H](CC(=O)O)NC1=O)NC(=O)[C@H](CC(C)C)NC(=O)[C@H](CC(=O)O)NC2=O` (stereo partly drawn) [I-1418, Ac-PL3-Asp-Leu-B5-Asp-Asp-Ala-Ala-Phe-Leu-PyrS2-2C1F-BztA-Leu-NH2], the IC50 in experiment [1] (setting [7]) is 0.106 µM; in experiment [1] (setting [3]), 0.106 µM; in experiment [2] (setting [4]), more than 20 µM.

These data come from patent US20240116985A1, “STAPLED PEPTIDES AND METHODS THEREOF” (priority 2020, published 2024).
